# Source: ChEMBL document CHEMBL4229336, “Identification of (1S,4S)-2,5-diazabicyclo[2.2.1]heptane-dithiocarbamate-nitrostyrene hybrid as potent antiproliferative and apoptotic inducing agent against cervical cancer cell lines” (Eur J Med Chem, 2018)
# pIC50: −log10 of the molar value. Calls of active or inactive are those of the source. No cut-off for these calls is given here.
# What was measured:
# [1] = test system: HeLa; test: Induction of apoptosis in human HeLa cells assessed as formation of apoptotic bodies at antiproliferative IC50 by DAPI staining-based epifluorescence microscopic analysis; format: functional, cell-based
# [2] = species: Homo sapiens; test: (§1) Antiproliferative activity against human ViBo cells after 24 hrs by crystal violet staining-based assay; format: functional, cell-based
# [3] = as §1; format: functional, cell-based
# [4] = Cell cycle analysis in human ViBo cells assessed as accumulation of cells at G2/M phase at antiproliferative IC50 after 24 hrs by propidium iodide staining-based flow cytometric analysis (reference value: 16.20%); format: functional
# [5] = test system: Ca-Ski; test: Induction of apoptosis in human CaSki cells assessed as formation of apoptotic bodies at antiproliferative IC50 by DAPI staining-based epifluorescence microscopic analysis; format: functional, cell-based
# [6] = Cytotoxicity against human ViBo cells assessed as induction of necrosis at antiproliferative IC50 after 24 hrs by LDH release assay relative to control; format: cell-based
# [7] = Cell cycle analysis in human ViBo cells assessed as accumulation of cells at S phase at antiproliferative IC50 after 24 hrs by propidium iodide staining-based flow cytometric analysis (reference value: 11.67%); format: functional
# [8] = test system: Ca-Ski; test: Antiproliferative activity against human CaSki cells after 24 hrs by crystal violet staining-based assay; format: functional, cell-based
# [9] = test system: Lymphocyte; test: Cytotoxicity in enriched human lymphocytes assessed as induction of necrosis by measuring LDH release at 2.36 uM after 72 hrs by LDH release assay; format: cell-based
# [10] = test system: Lymphocyte; test: Cytotoxicity in enriched human lymphocytes assessed as induction of necrosis by measuring LDH release at 0.99 uM after 72 hrs by LDH release assay; format: cell-based
# [11] = test system: Ca-Ski; test: Cell cycle analysis in human CaSki cells assessed as accumulation of cells at G1 phase at antiproliferative IC50 after 24 hrs by propidium iodide staining-based flow cytometric analysis (reference value: 69.31%); format: functional
# [12] = test system: HeLa; test: Induction of apoptosis in human HeLa cells assessed as caspase3 activity at antiproliferative IC50 after 24 hrs by FITC staining-based FACS analysis (reference value: 3%); format: functional
# [13] = test system: Ca-Ski; test: Cell cycle analysis in human CaSki cells assessed as accumulation of cells at S phase at antiproliferative IC50 after 24 hrs by propidium iodide staining-based flow cytometric analysis (reference value: 10.12%); format: functional
# [14] = test system: HeLa; test: Cell cycle analysis in human HeLa cells assessed as accumulation of cells at G2/M phase at antiproliferative IC50 after 24 hrs by propidium iodide staining-based flow cytometric analysis (reference value: 17.19%); format: functional
# [15] = test system: Ca-Ski; test: Induction of apoptosis in human CaSki cells assessed as caspase3 activity at antiproliferative IC50 after 24 hrs by FITC staining-based FACS analysis (reference value: 5%); format: functional
# [16] = species: Homo sapiens; test: Induction of apoptosis in human ViBo cells assessed as chromatin condensation at antiproliferative IC50 by DAPI staining-based epifluorescence microscopic analysis; format: functional, cell-based
# [17] = species: Homo sapiens; test: Induction of apoptosis in human ViBo cells assessed as caspase3 activation at antiproliferative IC50 after 24 hrs by FITC/DAPI staining-based fluorescence microscopic analysis; format: functional, cell-based
# [18] = species: Homo sapiens; test: Induction of apoptosis in human ViBo cells assessed as formation of apoptotic bodies at antiproliferative IC50 by DAPI staining-based epifluorescence microscopic analysis; format: functional, cell-based
# [19] = test system: Ca-Ski; test: Cell cycle analysis in human CaSki cells assessed as accumulation of cells at G2/M phase at antiproliferative IC50 after 24 hrs by propidium iodide staining-based flow cytometric analysis (reference value: 16.59%); format: functional
# [20] = test system: Lymphocyte; test: Induction of cell proliferation of enriched human lymphocytes assessed as cell proliferation level at 0.99 uM after 72 hrs by CFSE staining-based flow cytometric analysis (reference value: 73.36%)
# [21] = test system: HeLa; test: Induction of apoptosis in human HeLa cells assessed as caspase3 activation at antiproliferative IC50 after 24 hrs by FITC/DAPI staining-based fluorescence microscopic analysis; format: functional, cell-based
# [22] = test system: Lymphocyte; test: Induction of cell proliferation of enriched human lymphocytes assessed as cell proliferation level at 2.36 uM after 72 hrs by CFSE staining-based flow cytometric analysis (reference value: 73.36%)
# [23] = test system: Lymphocyte; test: Cytotoxicity in enriched human lymphocytes assessed as induction of necrosis by measuring LDH release at 0.73 uM after 72 hrs by LDH release assay; format: cell-based
# [24] = test system: HeLa; test: Cell cycle analysis in human HeLa cells assessed as accumulation of cells at G1 phase at antiproliferative IC50 after 24 hrs by propidium iodide staining-based flow cytometric analysis (reference value: 69.25%); format: functional
# [25] = test system: Lymphocyte; test: Induction of cell proliferation of enriched human lymphocytes assessed as cell proliferation level at 0.73 uM after 72 hrs by CFSE staining-based flow cytometric analysis (reference value: 73.36%)
# [26] = test system: Ca-Ski; test: Cytotoxicity against human CaSki cells assessed as induction of necrosis at antiproliferative IC50 after 24 hrs by LDH release assay relative to control; format: cell-based
# [27] = test system: HeLa; test: Cytotoxicity against human HeLa cells assessed as induction of necrosis at antiproliferative IC50 after 24 hrs by LDH release assay relative to control; format: cell-based
# [28] = Cell cycle analysis in human ViBo cells assessed as accumulation of cells at G1 phase at antiproliferative IC50 after 24 hrs by propidium iodide staining-based flow cytometric analysis (reference value: 66.69%); format: functional
# [29] = test system: Ca-Ski; test: Induction of apoptosis in human CaSki cells assessed as chromatin condensation at antiproliferative IC50 by DAPI staining-based epifluorescence microscopic analysis; format: functional, cell-based
# [30] = Induction of apoptosis in human ViBo cells assessed as caspase3 activity at antiproliferative IC50 after 24 hrs by FITC staining-based FACS analysis (reference value: 5%); format: functional
# [31] = test system: HeLa; test: Antiproliferative activity against human HeLa cells after 24 hrs by crystal violet staining-based assay; format: functional, cell-based
# [32] = test system: HeLa; test: Cell cycle analysis in human HeLa cells assessed as accumulation of cells at S phase at antiproliferative IC50 after 24 hrs by propidium iodide staining-based flow cytometric analysis (reference value: 10.37%); format: functional
# [33] = test system: HeLa; test: Induction of apoptosis in human HeLa cells assessed as chromatin condensation at antiproliferative IC50 by DAPI staining-based epifluorescence microscopic analysis; format: functional, cell-based
# [34] = test system: Ca-Ski; test: Induction of apoptosis in human CaSki cells assessed as caspase3 activation at antiproliferative IC50 after 24 hrs by FITC/DAPI staining-based fluorescence microscopic analysis; format: functional, cell-based
smiles,measurement,setting,value
CC(C)(C)OC(=O)N1C[C@@H]2C[C@H]1CN2C(=S)SC(C[N+](=O)[O-])c1ccccc1 (some centres not stated),Activity,[1],Active
same,Activity,[2],Dose-dependent effect
same,pIC50,[3],6.14
same,Activity,[4],20.48%
same,Activity,[5],Active
same,Activity,[6],0%
same,Activity,[7],10.05%
same,Activity,[8],Dose-dependent effect
same,pIC50,[8],5.63
same,Activity,[9],Non-Toxic
same,Activity,[10],Non-Toxic
same,Activity,[11],72.29%
same,Activity,[12],36%
same,Activity,[13],10.49%
same,Activity,[14],16.01%
same,Activity,[15],42%
same,Activity,[16],Active
same,Activity,[17],Active
same,Activity,[18],Active
same,Activity,[19],14.35%
same,Activity,[20],62.38%
same,Activity,[21],Active
same,Activity,[22],7.44%
same,Activity,[23],Non-Toxic
same,Activity,[24],70.26%
same,Activity,[25],64.02%
same,Activity,[26],2%
same,Activity,[27],3%
same,Activity,[28],64.38%
same,Activity,[29],Active
same,Activity,[30],35%
same,Activity,[31],Dose-dependent effect
same,pIC50,[31],6.00
same,Activity,[32],10.68%
same,Activity,[33],Active
same,Activity,[34],Active
CC(C)(C)OC(=O)N1CCN(C(=S)SC(C[N+](=O)[O-])c2ccccc2)CC1 (configuration not stated),pIC50,[3],4.72
same,Activity,[6],0%
same,pIC50,[8],4.53
same,Activity,[26],0%
same,Activity,[27],0%
same,pIC50,[31],4.50
COc1ccc(C(C[N+](=O)[O-])SC(=S)N2C[C@@H]3C[C@H]2CN3C(=O)OC(C)(C)C)cc1 (some centres not stated),Activity,[2],Dose-dependent effect
same,pIC50,[3],5.58
same,Activity,[6],5%
same,Activity,[8],Dose-dependent effect
same,pIC50,[8],5.21
same,Activity,[26],0%
same,Activity,[27],0%
same,Activity,[31],Dose-dependent effect
same,pIC50,[31],5.28
CC(=O)O[C@H]1C(=O)[C@@]2(C)[C@H]([C@H](OC(=O)c3ccccc3)[C@]3(O)C[C@H](OC(=O)[C@H](O)[C@@H](NC(=O)c4ccccc4)c4ccccc4)C(C)=C1C3(C)C)[C@]1(OC(C)=O)CO[C@@H]1C[C@@H]2O [PACLITAXEL],pIC50,[3],5.80
same,pIC50,[8],5.54
CC(C)(C)OC(=O)N1C[C@@H]2C[C@H]1CN2C(=S)SC(C[N+](=O)[O-])c1ccc(Cl)cc1 (some centres not stated),Activity,[2],Dose-dependent effect
same,pIC50,[3],5.62
same,Activity,[6],12%
same,Activity,[8],Dose-dependent effect
same,pIC50,[8],5.14
same,Activity,[26],15%
same,Activity,[27],4%
same,Activity,[31],Dose-dependent effect
same,pIC50,[31],5.25
